SMILES strings stand for the structures.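 Each compound was tested at five concentrations against cells in 96-well plates for 48 hours. The concentration for 50% growth inhibition is given as GI50.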 The source made the active and inactive calls. Cut-off read from the data, not from the text of the source: active = GI50 up to about 1.1 µM and inactive = higher.

The record followed here is ChEMBL document CHEMBL1201862, “PubChem BioAssay data set” (2004).

Common to all, as to experiment: NCI anticancer screen, dose series, 48 h
Assay [1] has as its system HOP-92.
For assay [2], the system named is IGROV-1.
Assay [3] relates to K562.
Assay [4] concerns LOX IMVI.
The subject of assay [5] is M14.
In assay [6] the test system is Malme-3M.
The subject of assay [7] is NCI-H522.
In assay [8] the test system is OVCAR-8.
The subject of assay [9] is RPMI-8226.
Assay [10] has as its system SF-539.
Assay [11] deals with SK-MEL-28.
In assay [12] the test system is SK-MEL-2.
For assay [13], the system named is SK-MEL-5.
Assay [14] deals with SNB-19.
Assay [15] concerns UACC-62.
Assay [16] relates to HCT-116.
Assay [17] concerns RXF 393.
The test system of assay [18] is SK-OV-3.
In assay [19] the test system is SNB-75.
For assay [20], the system named is NCI-H226.

On to `O[C@@]12Cc3c([nH]c4ccccc34)[C@@H]3Oc4cccc5c4[C@@]31CCN(CC1CC1)[C@@H]2C5`, for which the GI50 in assay [1] was 12.4 µM (inactive); in [2], 24.9 µM (inactive); in [3], 22.6 µM (inactive); in [4], 18.9 µM (inactive); in assay [5] it was 23.7 µM (inactive); in assay [6], 19.5 µM (inactive). Besides, the GI50 is 22.8 µM (inactive) in [7]; 15.1 µM (inactive) in assay [8]; 19.4 µM (inactive) in [9]; 20.9 µM (inactive) in [10]; 12.7 µM (inactive) in assay [11]; 26.5 µM (inactive) in assay [12]. In addition, the GI50 in [13] is 24.3 µM (inactive); in assay [14], 33 µM (inactive); in assay [15] it was 17.2 µM (inactive).
For the compound `CCNc1cnc2c(n1)c(=O)n(C)c(=O)n2C`, the GI50 in [16], in assay [1], in assay [2], in [3], in assay [5] and in [6] was > 100 µM (inactive) throughout. Further, the GI50 in [7] is > 100 µM (inactive); in [8] it was > 100 µM (inactive); in assay [9], > 100 µM (inactive); in assay [17], 84.9 µM (inactive); in [10] it was > 100 µM (inactive); in [11] it was > 100 µM (inactive). The GI50 in [12] was > 100 µM (inactive); in assay [13] it was > 100 µM (inactive); in [18] it was > 100 µM (inactive); in assay [14], > 100 µM (inactive); in assay [19], 48.9 µM (inactive); in [15] it was > 100 µM (inactive).
Consider `c1ccc(CCn2cncn2)cc1`, for which the GI50 in [16], in [1], in [2], in assay [3], in assay [5] and in [6] was > 100 µM (inactive) throughout. The GI50 in assay [20], in assay [7], in assay [10], in assay [11], in assay [13] and in assay [18] was > 100 µM (inactive) throughout. Also, the GI50 in assay [14], in assay [19] and in assay [15] was > 100 µM (inactive) in each case.
Take `CCSc1nc(N/N=C/c2cccs2)c2cnn(CO)c2n1`: the GI50 in assay [16] was 5.01 µM (inactive); in assay [1], 16.9 µM (inactive); in assay [2], 2.61 µM (inactive); in [3], 4.13 µM (inactive); in [5], 6.11 µM (inactive); in assay [6], 13.8 µM (inactive). Further, the GI50 in [20] is 3.1 µM (inactive); in [7], 3.71 µM (inactive); in [8], 4.16 µM (inactive); in assay [17], 3.66 µM (inactive); in assay [10], 10.5 µM (inactive); in assay [11] it was 14.9 µM (inactive). The GI50 was 10.6 µM (inactive) in assay [12]; 3.46 µM (inactive) in assay [13]; 14.6 µM (inactive) in assay [18]; 10.8 µM (inactive) in [14]; 14.2 µM (inactive) in assay [19]; 10.4 µM (inactive) in assay [15].
As for `CCCCCCCCCCCCCCCCCc1cc(Cl)nc(Cl)n1`, the GI50 in assay [2], in assay [3], in [4], in assay [5], in assay [6] and in assay [20] was > 100 µM (inactive) in each case. Besides, the GI50 is > 100 µM (inactive) in [8]; 43.7 µM (inactive) in assay [9]; > 100 µM (inactive) in assay [17]; > 100 µM (inactive) in assay [10]; > 100 µM (inactive) in assay [11]; > 100 µM (inactive) in assay [12]. For the same compound, the GI50 in assay [13], in [18], in [14], in [19] and in assay [15] was > 100 µM (inactive) throughout.
For the compound `CC1(C)OC2OC(COC(=O)c3ccc(C#N)cc3)C3OC(C)(C)OC3C2O1` (stereo not given), the GI50 in [16] was > 75 µM (inactive); in assay [2], > 75 µM (inactive); in [3], > 75 µM (inactive); in assay [4], > 75 µM (inactive); in assay [5], > 75 µM (inactive); in [6], 61 µM (inactive). The GI50 in [20] was > 75 µM (inactive); in assay [7], > 75 µM (inactive); in assay [8], > 75 µM (inactive); in assay [9] it was 57.8 µM (inactive); in assay [17], > 75 µM (inactive); in [10], > 75 µM (inactive). Also, the GI50 in assay [11], in [12], in [13], in [18], in [14] and in assay [19] was > 75 µM (inactive) throughout. In [15], the GI50 was > 75 µM (inactive).
Consider `Nc1ccc(Sc2nnc(N)s2)cc1`, for which the GI50 in assay [16], in assay [2], in assay [3], in assay [5], in assay [7] and in assay [8] was > 100 µM (inactive) throughout. The GI50 in [9], in assay [10], in [11], in [13], in assay [18] and in assay [14] was > 100 µM (inactive) in each case. Also, in assay [19], the GI50 was > 100 µM (inactive).
On to `CNC1=C(C)C(=O)C2=C(C1=O)C(COC(N)=O)C1(OC)C3NC3CN21` (stereo not given), for which the GI50 in [16] is 0.209 µM (active); in [1], > 10 µM (inactive); in assay [2], 3.53 µM (inactive); in [3], 4.07 µM (inactive); in assay [4], 0.152 µM (active); in assay [5], 0.22 µM (active). Further, the GI50 in assay [6] was 0.571 µM (active); in [20], 0.543 µM (active); in assay [7] it was 0.427 µM (active); in [8], 0.644 µM (active); in [9], 3.13 µM (inactive); in assay [10], 0.183 µM (active). Also, the GI50 in assay [11] was 1.29 µM (inactive); in [12], 1.15 µM (inactive); in assay [13], 0.0445 µM (active); in [18], 1.27 µM (inactive); in [14], 0.268 µM (active); in assay [19], 0.141 µM (active). Further, in [15], the GI50 was 0.221 µM (active).
As to `Oc1ccc2ccccc2c1/N=N/c1cccc2ccccc12`, the GI50 was > 100 µM (inactive) in assay [16]; > 100 µM (inactive) in [1]; 49.9 µM (inactive) in [2]; > 100 µM (inactive) in assay [3]; > 100 µM (inactive) in assay [5]; 91.6 µM (inactive) in [6]. Moreover, the GI50 in assay [20] was > 100 µM (inactive); in [7] it was 52.4 µM (inactive); in assay [8] it was 44.1 µM (inactive); in assay [17] it was 65.3 µM (inactive); in assay [10], 24.3 µM (inactive); in assay [12], > 100 µM (inactive). The GI50 in assay [13] was > 100 µM (inactive); in [18], 52.6 µM (inactive); in assay [14] it was 47.6 µM (inactive); in assay [19], 23.6 µM (inactive); in assay [15], > 100 µM (inactive).
`O=C1CNc2cc(N3CCCCC3)ccc2N1`: the GI50 in [1] is > 100 µM (inactive); in assay [2], 13.9 µM (inactive); in assay [3] it was > 100 µM (inactive); in assay [5], 66.1 µM (inactive); in [6], > 100 µM (inactive); in assay [20] it was 16.3 µM (inactive). Further, the GI50 in [7], in assay [8], in assay [9], in assay [10], in assay [11] and in assay [12] was > 100 µM (inactive) each time. In addition, the GI50 was 43.8 µM (inactive) in [13]; > 100 µM (inactive) in assay [18]; > 100 µM (inactive) in assay [14]; 66.2 µM (inactive) in [19]; 25.4 µM (inactive) in assay [15].
`COc1cc(O)cc(/C=C/c2ccc(O)cc2)c1`: the GI50 was 32 µM (inactive) in assay [16]; 21.6 µM (inactive) in assay [1]; 53.3 µM (inactive) in [2]; 28.2 µM (inactive) in [3]; 24.3 µM (inactive) in [5]; 32.6 µM (inactive) in [6]. Also, the GI50 is 24.7 µM (inactive) in assay [20]; 30.1 µM (inactive) in [7]; 23.8 µM (inactive) in [8]; 4.07 µM (inactive) in assay [9]; 72.8 µM (inactive) in assay [17]; 35.6 µM (inactive) in assay [10]. Further, the GI50 in assay [11] is > 100 µM (inactive); in assay [12], 52.7 µM (inactive); in assay [13] it was 30.7 µM (inactive); in assay [18], > 100 µM (inactive); in assay [14] it was 36.6 µM (inactive); in assay [19], 90.4 µM (inactive). The GI50 in assay [15] was 20.7 µM (inactive).
As to `COc1cc(O)c2c(c1)C(=O)c1cc(C)cc(O)c1C2=O` [PHYSCION], the GI50 in assay [16], in assay [2], in assay [3], in assay [4], in assay [5] and in assay [6] was > 100 µM (inactive) throughout. Besides, the GI50 is > 100 µM (inactive) in assay [20]; 78.5 µM (inactive) in assay [7]; > 100 µM (inactive) in assay [8]; > 100 µM (inactive) in assay [9]; > 100 µM (inactive) in [10]; > 100 µM (inactive) in [11]. The GI50 in assay [12] was > 100 µM (inactive); in assay [13], > 100 µM (inactive); in assay [18], > 100 µM (inactive); in assay [14], > 100 µM (inactive); in assay [19], 93.8 µM (inactive); in assay [15] it was > 100 µM (inactive).
